Key:
[1] = The compound was tested for its inhibitory activity against alpha-mannosidase using p-nitrophenylmannopyranoside as substrate
[2] = The compound was tested for its competitive inhibitory activity against Alpha-mannosidase

Row | Km [1] [µM] | Ki [2] [µM] | Structure (SMILES)
1 | 570 | 50 | O=[N+]([O-])c1ccc(O/N=C2\OC(CO)C(O)C(O)C2O)c([N+](=O)[O-])c1 (centres undefined)
2 | 1200 | 80 | O=C(Nc1ccccc1)O/N=C1\OC(CO)C(O)C(O)C1O (centres undefined)
